In PMC8509669 (2021):

Assays:
Assay in all cases: ThT fluorescence light-up
[1] = tested on: FenA3-ThT (DNA, aptamer) CCGCAGGTCAGGTTGAGAGGATCCCGATTGCGG; settings: 10 mM NaCl; 10 mM Tris-HCl pH 7.0, 30 °C; 1 µM aptamer
[2] = tested on: FenA5-ThT (DNA, aptamer) ACGACCGCAGGGCGTGAGAGCCGGAACGGTGCATCGTCGT; settings: 10 mM NaCl; 10 mM Tris-HCl pH 7.0, 30 °C; 1 µM aptamer
[3] = tested on: FenA1-ThT (DNA, aptamer) ACGACCACAGGGAGTAAGAGGCCGCCAGATTGTAAGTCGT; settings: 10 mM NaCl; 10 mM Tris-HCl pH 7.0, 30 °C; 1 µM aptamer
[4] = tested on: FenA2-ThT (DNA, aptamer) ACGACGGGCCGAGTAGTCTCCACGATTGATCGGAAGTCGT; settings: 10 mM NaCl; 10 mM Tris-HCl pH 7.0, 30 °C; 1 µM aptamer; peak signal at 1:8 sensor:ThT
[5] = tested on: FenA4-ThT (DNA, aptamer) ACGACCGCAGGTTGTCTGAGCCGACAGGTTGCATGTCGT; settings: 10 mM NaCl; 10 mM Tris-HCl pH 7.0, 30 °C; 1 µM aptamer

Which results are given for `Cc1ccc2c(c1)sc(-c1ccc(N(C)C)cc1)[n+]2C`?
binding [1]: weak; binding [2]: weak; binding [3]: weak; binding [4]: yes; binding [5]: weak
